Test results reported in article PMC10584170, “Machine learning-based phenotypic imaging to characterise the targetable biology of Plasmodium falciparum male gametocytes for the development of transmission-blocking antimalarials” (PLOS Pathogens, 2023).
Read-outs that look alike come from different tables or passages of the source.

What was measured:
[1] = test system: P. falciparum male gametocytes; experiment: PhIDDLI timecourse assay, compound added at timepoints after triggering male gametogenesis; format: cell-based, Plasmodium falciparum NF54
Experimental: To gain greater understanding of their activity, selected molecules displaying different inhibition phenotypes in the initial screen were re-tested. Rather than subjecting gametocytes to a 24h preincubation prior to inducing gametogenesis, compounds were added at varying timepoints after triggering male gametogenesis. Samples were then fixed 20 min post-induction, imaged and analysed similarly using the PhIDDLI pipeline.
Alternatively, if compound action over time was to be assessed, 1.5ml tubes with appropriate dilutions of test compounds were prepared for each timepoint. Gametogenesis was then triggered in the mature gametocyte culture with ookinete medium and temperature decrease from 37°C. At appropriate times, 200 μl of triggered culture was sampled and mixed with test compound. All samples were then allowed to continue gametogenesis and fixed as described previously with paraformaldehyde after 20 min (when a DMSO-treated sample could be expected to be exflagellating).
100 μl of the fixed cell suspensions were added to wells of a 24 well plate containing 1ml PBS and a poly-l-lysine-coated glass coverslip. Cells were allowed to settle and adhere to the coverslip overnight at 4°C before coverslips were transferred to a hydrophobic membrane (Parafilm) for immunofluorescence staining in a humidified, dark box. Cells were permeabilised with 0.1% Triton-X100 in PBS for 10 min before washing in PBS three times. Non-specific binding was blocked by incubating coverslips with PBS + 10% fetal bovine serum (FBS) (blocking buffer) for 1 h. Gametocytes and microgametes were visualised by labelling with an anti-alpha tubulin antibody (raised from chicken embryo brain tubulin but cross-reacts with many other species) (clone DM1A (Sigma)) 1:500 dilution in blocking buffer for 1 h, washed as before, and then stained with an anti-mouse Alexa488 secondary antibody (Thermo-Fisher) 1:1,000 dilution in blocking buffer for a further 1 h. After a final series of washes, the coverslips were mounted on glass slides with VectaShield mountant (Vector Laboratories) containing 4′,6-diamidino-2-phenylindole (DAPI) to visualise cellular DNA.
All slides were imaged using a Nikon Ti fluorescence microscope using an x100 oil objective and 1.5x zoom. For each sample, tubulin-postive, DAPI-positive stained gametocytes/gametes were imaged at random. Z-stack images with 0.3μm slices were captured for each field of view and images deconvolved and transformed by maximum intensity projection within the Nikon NIS Elements software. Within raw images, cells were initially identified by an automated analysis pipeline developed in ICY Bioimage Analysis based upon the intensity of the tubulin staining captured which assigns a region of interest (ROI) around each cell. All ROIs were reviewed by a trained operator and adjusted if necessary to reflect the true outline of the cell (for example if two cells touching had been allocated the same ROI). Raw images contained between 1 and 8 extractable cells.
Code for the PhIDDLI pipeline was written in Python 3.8 and executed by command line within a 64-bit Ubuntu virtual machine running within Oracle VM VirtualBox 6.1. […] Principle component analysis of compound phenotypes (Fig 5) was performed using ClustViz (https://biit.cs.ut.ee/clustvis/) using ln(x+1) transformation, and k-means clustering of the resultant PCA data was coded in R and executed in R Studio version 1.1.456 to identify optimum cluster using the elbow method.

[2] = test system: P. falciparum female gametocytes; experiment: P. falciparum Dual Gamete Formation Assay (PfDGFA), female readout (Pfs25-positive female gametes); format: cell-based, Plasmodium falciparum NF54; conditions: for inhibition at 2 µM: 24h preincubation with gametocytes
Summary of the method: (§1)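 Male and female gamete formation were quantified by microscopy image analysis following 24 h incubation of mature NF54 gametocytes with compound and activation at 28°C with xanthurenic acid.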

[3] = test system: P. falciparum male gametocytes; experiment: P. falciparum Dual Gamete Formation Assay (PfDGFA), male readout (exflagellation); format: cell-based, Plasmodium falciparum NF54; conditions: for inhibition at 2 µM: 24h preincubation with gametocytes
Summary of the method: as §1

HepG2 cells [4] = experiment: HepG2 cytotoxicity counter-screen; conditions: for Mean TOX: mean of the HepG2 TOX50 values; for DGFA Tox50 HepG2: HepG2 value reported with the DGFA screen
[5] = test system: P. falciparum female gametocytes; experiment: P. falciparum Female Gametocyte Activation Assay (PfFGAA); format: cell-based, Plasmodium falciparum; conditions: Mean TOX HepG2 over FGAA IC50; GREEN = >10-fold; RED = <10-fold
Description: (§2) Fig 1 The activity of TCAMS compound identified in the Pf DGFA screen. (A) 85 molecules were confirmed active in the Pf DGFA. 58 were previously identified in one or more transmission-blocking screens. […] No molecule was identified with >4.7-fold greater activity against female gametocytes. Abbreviations (IC50 = concentration giving 50% inhibition, PbODA = P. berghei Ookinete Development Assay, PfDGFA = P. falciparum Dual Gamete Formation Assay, PfFGAA = P. falciparum Female Gametocyte Activation Assay, PfGCT = P. falciparum Gametocyte Viability ATP Assay).

HepG2 cells [6] = conditions: cited from earlier work
[7] = test system: P. berghei ookinete development; experiment: P. berghei Ookinete Development Assay (PbODA); format: cell-based, Plasmodium berghei; conditions: Mean TOX HepG2 over Pb ODA value; GREEN = >10-fold; RED = <10-fold
Description: as §2

[8] = test system: P. falciparum female gametocytes; parameters: method as in Miguel-Blanco et al 2017; conditions: ref Miguel-Blanco et al 2017; read-out: Pf female gametogenesis FGAA IC50; cited from earlier work
[9] = compound added concurrent with triggering male gametogenesis or 2 min later
[10] = compound added later than 2 min post-induction (up to 10 min)
[11] = this study, read-out: Pf DGFA IC50 MALE
[12] = this study, read-out: Pf DGFA IC50 FEM
[13] = compound added between 0 and 5 min post induction

Compound | Cytotox ratio Pf Female [2] | Cytotox ratio Pf Male [3] | IC50 [3, 11] [µM] | Mean TOX (HepG2 cells [4]) [µM] | Cytotox ratio Pf FGAA [5] | IC50 [2, 12] [µM] | FGAA TOX50 HepG2 (HepG2 cells [6]) [µM] | ODA TOX50 HepG2 (HepG2 cells [6]) [µM] | Cytotox ratio Pb Ookinete [7] | IC50 [8] [µM] | other results
COCCN(C)CCCOc1cc2c(cc1OC)ncn2-c1cc(OCc2ccccc2C(F)(F)F)c(C(N)=O)s1.Cl [TC14] | 1.4 | 22.0 | 0.62 | 13.65 | – | – | – | – | – | – | impact on proportion of cells with replicated DNA ([1]; all timepoints of addition): minimal impact; effect on exflagellation [1, 9]: substantially reduced; effect on exflagellation [1, 10]: not inhibitory
CNC(=O)c1cnc(Nc2ccc(N3CCN(C)CC3)cc2)nc1Nc1ccccc1OC.O=C(O)C(F)(F)F [TC16] | 3.6 | 29.7 | 1.2 | 35.63 | – | – | – | – | – | – | cells showing apparent DNA replication ([1]; compound added concurrent with induction, fixed 20 min post-induction, DMSO control 61.4%): 21.7%; effect on exflagellation [1, 9]: substantially reduced; amounts of cells showing evidence of DNA replication ([1]; compound added during the first 2 min of male gametogenesis): markedly reduced; effect on exflagellation [1, 10]: not inhibitory
Cc1cccc(Nc2nc(N[C@@H]3CCCNC3)nc3cc[nH]c(=O)c23)c1.O=C(O)C(F)(F)F [TC29] | 0.532 | 19.5 | 0.21 | 4.09 | 2.2 | 7.69 | 3.25 | 4.57 | 3922.6 | 1.85 | –
Cn1c(Sc2ncnc3sccc23)nc2ccccc21 [TC34] | 178.6 | 138.9 | 0.72 | 100.00 | 80.0 | 0.56 | 100 | 100 | 156933.9 | 1.25 | DGFA Tox50 HepG2 (HepG2 cells [4]): 100 µM
Cc1cc(Nc2ncc(C#N)c(Nc3ccccc3C(N)=O)n2)ccc1N1CCN(C)CC1.Cl [TC37] | 0.244 | 45.1 | 0.04 | 1.80 | 1.1 | 7.4 | 0.4 | 3.981 | 66058.5 | 1.67 | –
Cc1ccc(S(=O)(=O)N(CCCNCc2cccc(O)c2)c2ccccc2)cc1 [TC44] | 4.8 | 119.3 | 0.31 | 36.97 | 32.4 | 7.66 | 44.67 | 34.6737 | 26220.7 | 1.14 | –
Cc1ccc(-n2c(Sc3ncnc4sccc34)nnc2N2CCCC2)cc1 [TC46] | 315.2 | 207.3 | 0.38 | 78.79 | 160.8 | 0.25 | 89.13 | 74.1 | 177427.8 | 0.49 | –
CCS(=O)(=O)Nc1ccc2c(c1)/C(=C(/Nc1ccc(CN3CCCCC3)cc1)c1ccccc1)C(=O)N2 [TC81] | 0.9 | 877.0 | 0.01 | 8.77 | – | – | – | 16.98 | 6770.0 | – | –
O=C(C1CC1)N1c2ccccc2CCc2ccccc21 [TCMDC-123880] | – | – | – | 100.00 | – | – | – | – | – | – | effect on exflagellation [1, 13]: strongly inhibited exflagellation; Selectivity ratio F ([2]; HepG2 Tox50 versus female IC50): 10; Cytotox ratio Pf Female ([2]; Mean TOX HepG2 over DGFA IC50 FEM, GREEN = >10-fold, RED = <10-fold): 10.0; inhibition at 2 µM ([2]; Plasmodium falciparum, average of replicates, read-out: Average inhibition female (%)): 7.7%; inhibition at 2 µM ([2]; Plasmodium falciparum, replicate R1, read-out: % inhibition female (individual replicates) R1): 12.4%; inhibition at 2 µM ([2]; Plasmodium falciparum, replicate R2, read-out: % inhibition female (individual replicates) R2): -4.3%; inhibition at 2 µM ([2]; Plasmodium falciparum, replicate R3, read-out: % inhibition female (individual replicates) R3): 22.7%; inhibition at 2 µM ([2]; Plasmodium falciparum, replicate R4, read-out: % inhibition female (individual replicates) R4): 0.07%; IC50 ([2]; Plasmodium falciparum, PfDGFA, 24 h incubation with gametocytes before induction, female gamete readout, read-out: Female IC50): > 10 µM; Selectivity Ratio M ([3]; HepG2 Tox50 versus male IC50): 180.08; Cytotox ratio Pf Male ([3]; Mean TOX HepG2 over DGFA IC50 MALE, GREEN = >10-fold, RED = <10-fold): 178.6; inhibition at 2 µM ([3]; Plasmodium falciparum, average of replicates, read-out: Average inhibition male (%)): 95.8%; inhibition at 2 µM ([3]; Plasmodium falciparum, replicate R1, read-out: % inhibition male (individual replicates) R1): 98.9%; inhibition at 2 µM ([3]; Plasmodium falciparum, replicate R2, read-out: % inhibition male (individual replicates) R2): 92.4%; inhibition at 2 µM ([3]; Plasmodium falciparum, replicate R3, read-out: % inhibition male (individual replicates) R3): 99.8%; inhibition at 2 µM ([3]; Plasmodium falciparum, replicate R4, read-out: % inhibition male (individual replicates) R4): 92.2%; IC50 ([3]; Plasmodium falciparum, PfDGFA, 24 h incubation with gametocytes before induction, exflagellation readout, read-out: Male IC50): 0.56 µM; DGFA Tox50 HepG2 (HepG2 cells [4]): 100 µM
CC[C@]1(O)C[C@@H]2CN(CCc3c([nH]c4ccccc34)[C@@](C(=O)OC)(c3cc4c(cc3OC)N(C)[C@H]3[C@@](O)(C(=O)OC)[C@H](OC(C)=O)[C@]5(CC)C=CCN6CC[C@]43[C@@H]65)C2)C1 [vinblastine, reference compound] | – | – | – | – | – | – | – | – | – | – | effect on exflagellation [1, 13]: strongly inhibited exflagellation
